# Data: article PMC5855359, “A Statistical Thermodynamic Model for Ligands Interacting With Ion Channels: Theoretical Model and Experimental Validation of the KCNQ2 Channel” (Frontiers in Pharmacology, 2018)
# Target: T1, KCNQ2 (Homo sapiens, UniProt O43526)
# T1 construct: WT KCNQ2 homotetrameric channel expressed in CHO cells
# Assay: whole-cell voltage clamp in transfected CHO cells, concentration-response of outward current potentiation
# Format: cell-based
# T1 sequence (O43526 whole entry): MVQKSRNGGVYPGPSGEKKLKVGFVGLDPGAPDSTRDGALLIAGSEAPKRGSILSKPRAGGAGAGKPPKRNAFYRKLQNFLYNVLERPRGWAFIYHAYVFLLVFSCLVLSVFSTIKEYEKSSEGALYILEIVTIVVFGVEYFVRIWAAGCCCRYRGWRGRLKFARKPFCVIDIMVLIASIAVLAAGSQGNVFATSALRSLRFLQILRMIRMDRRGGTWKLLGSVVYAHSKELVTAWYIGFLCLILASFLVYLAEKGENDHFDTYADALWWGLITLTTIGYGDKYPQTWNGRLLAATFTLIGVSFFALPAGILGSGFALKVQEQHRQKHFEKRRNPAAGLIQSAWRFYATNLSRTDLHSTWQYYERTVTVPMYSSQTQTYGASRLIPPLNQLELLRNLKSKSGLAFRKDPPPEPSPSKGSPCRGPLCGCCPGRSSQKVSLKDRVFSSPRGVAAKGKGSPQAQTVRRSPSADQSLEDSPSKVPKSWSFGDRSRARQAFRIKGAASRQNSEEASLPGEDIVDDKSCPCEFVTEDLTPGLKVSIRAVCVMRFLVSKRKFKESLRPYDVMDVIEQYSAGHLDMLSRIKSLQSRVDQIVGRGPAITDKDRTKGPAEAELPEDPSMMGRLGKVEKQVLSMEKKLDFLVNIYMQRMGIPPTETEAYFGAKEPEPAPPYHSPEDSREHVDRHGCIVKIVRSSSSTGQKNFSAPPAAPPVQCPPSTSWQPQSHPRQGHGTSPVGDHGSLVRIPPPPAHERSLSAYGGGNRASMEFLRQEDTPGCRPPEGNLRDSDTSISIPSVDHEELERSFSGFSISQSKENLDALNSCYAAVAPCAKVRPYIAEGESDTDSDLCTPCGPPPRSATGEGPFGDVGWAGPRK
compound,measurement,value
"O=C(Nc1ccc(Cl)nc1)c1ccc(F)cc1 [ztz240, N-(6-chloro-pyridin-3-yl)-4-fluorobenzamide]",EC50,~5.8 µM
